# Laboratory results published in publication PMC4556431 (Angewandte Chemie (International ed. in English), 2015).
# Target: Cif (CFTR inhibitory factor) (Pseudomonas aeruginosa, UniProt A0A0H2ZD27)
# Test: epoxide hydrolase inhibition assay
# Type: biochemical
# Chain of Cif (CFTR inhibitory factor) (A0A0H2ZD27 25-319 limits assumed): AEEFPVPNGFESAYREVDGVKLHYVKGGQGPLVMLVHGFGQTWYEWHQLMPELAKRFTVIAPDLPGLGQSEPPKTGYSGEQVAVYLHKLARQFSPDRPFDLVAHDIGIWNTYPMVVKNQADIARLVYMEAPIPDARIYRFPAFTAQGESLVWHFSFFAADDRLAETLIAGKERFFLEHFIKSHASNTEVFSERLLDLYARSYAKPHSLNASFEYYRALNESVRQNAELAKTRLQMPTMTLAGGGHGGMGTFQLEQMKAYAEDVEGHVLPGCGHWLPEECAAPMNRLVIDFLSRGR
compound,measurement,value
"N[C@@H](Cc1cc(I)c(Oc2cc(I)c(O)c(I)c2)c(I)c1)C(=O)O [compound 9, 9]",IC50,> 100 µM
